Measured values: patent publication US11613547B2 (priority 2019, dated 2023)
Where “and” joins values, the source holds several entries; their conditions need not be identical. Equal entries are not always repeated. Entries after “also recorded” stand apart in the source; their conditions may differ.

How the values were obtained:
330 non-olfactory GPCRs = assay: PRESTO-Tango GPCRome β-arrestin recruitment screen; format: cell-based; details: 3 μM
Method: Assessment of off-target activity of MP1207 using PRESTO-Tango GPCR-ome To identify potential off-target activity of MP1207, the National Institutes of Mental Health Psychoactive Drug Screen Program were used. MP1207 was first tested for activity against 330 non-olfactory GPCRs using the PRESTO-Tango GPCRome screening β-arrestin recruitment assay at 3 μM MP1207. The activity at each receptor was measured in quadruplicate.
Screening of compounds was accomplished using previously described methods with several modifications (www.ncbi.nlm.nih.gov/pmc/articles/PMC4424118/). First, HTLA cells were plated in DMEM with 2% dialyzed FBS and 10 U/mL penicillin-streptomycin. Next, the cells were transfected using an in-plate PEI method (www.ncbi.nlm.nih.gov/pmc/articles/PMC4012321/). PRESTO-Tango receptor DNAs were resuspended in OptiMEM and hybridized with PEI prior to dilution and distribution into 384-well plates and subsequent addition to cells. After overnight incubation, drugs diluted in DMEM with 1% dialyzed FBS were added to cells without replacement of the medium. The remaining steps of the PRESTO-Tango protocol were followed as previously described.

C57/B6 mice = assay: Locomotor effect (CLAMS); details: 30 or 100 nmol icv
Y312W-hKOR [1] = biological target: T1, Y312W-hKOR (Homo sapiens, UniProt P41145, Y312W); assay: cAMP inhibition assay, Y312W-hKOR mutant; format: cell-based; design: expressed in transfected cells; host or cells: HEK 293T (inferred from the general cAMP method)
T1 sequence (P41145 whole entry Y312W): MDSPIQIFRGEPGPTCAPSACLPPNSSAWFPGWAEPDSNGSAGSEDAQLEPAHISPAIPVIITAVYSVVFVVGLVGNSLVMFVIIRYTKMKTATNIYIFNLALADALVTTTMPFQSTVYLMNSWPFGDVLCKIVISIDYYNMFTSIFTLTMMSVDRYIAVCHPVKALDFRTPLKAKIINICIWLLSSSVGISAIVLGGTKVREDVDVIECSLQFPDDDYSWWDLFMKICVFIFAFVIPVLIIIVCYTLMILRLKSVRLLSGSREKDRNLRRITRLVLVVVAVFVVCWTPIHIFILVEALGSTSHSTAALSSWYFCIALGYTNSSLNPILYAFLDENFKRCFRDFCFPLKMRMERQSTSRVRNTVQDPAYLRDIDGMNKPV

mDOR [2] = biological target: T2, mDOR (Mus musculus, UniProt P32300); assay: [35S]GTPγS functional assay, mDOR; format: biochemical
T2 construct: expressed in transfected cells
T2 sequence (P32300 whole entry): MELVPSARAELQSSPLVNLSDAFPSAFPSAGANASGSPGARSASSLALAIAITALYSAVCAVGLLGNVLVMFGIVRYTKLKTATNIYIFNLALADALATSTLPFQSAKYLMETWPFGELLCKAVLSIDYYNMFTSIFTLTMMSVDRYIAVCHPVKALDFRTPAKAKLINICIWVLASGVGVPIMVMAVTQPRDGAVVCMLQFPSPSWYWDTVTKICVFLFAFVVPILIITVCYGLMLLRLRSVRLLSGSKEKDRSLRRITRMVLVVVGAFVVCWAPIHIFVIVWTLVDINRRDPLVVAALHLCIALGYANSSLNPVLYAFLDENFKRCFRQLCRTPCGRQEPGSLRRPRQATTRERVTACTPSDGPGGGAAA

hKOR [3] = biological target: T3, hKOR (Homo sapiens, UniProt P41145); assay: cAMP inhibition assay (GloSensor, HEK 293T), hKOR; format: cell-based
T3 construct: expressed in transfected cells; host or cells: HEK 293T (ATCC CRL-11268), transient
T3 sequence (P41145 whole entry): as the sequence (P41145 whole entry Y312W) above, with W312Y counted along it

hMOR [4] = biological target: T4, hMOR (Homo sapiens, UniProt P35372); assay: cell-based; format: cell-based
T4 construct: expressed in transfected cells; host or cells: HEK 293T (ATCC CRL-11268), transient
T4 sequence (P35372 whole entry): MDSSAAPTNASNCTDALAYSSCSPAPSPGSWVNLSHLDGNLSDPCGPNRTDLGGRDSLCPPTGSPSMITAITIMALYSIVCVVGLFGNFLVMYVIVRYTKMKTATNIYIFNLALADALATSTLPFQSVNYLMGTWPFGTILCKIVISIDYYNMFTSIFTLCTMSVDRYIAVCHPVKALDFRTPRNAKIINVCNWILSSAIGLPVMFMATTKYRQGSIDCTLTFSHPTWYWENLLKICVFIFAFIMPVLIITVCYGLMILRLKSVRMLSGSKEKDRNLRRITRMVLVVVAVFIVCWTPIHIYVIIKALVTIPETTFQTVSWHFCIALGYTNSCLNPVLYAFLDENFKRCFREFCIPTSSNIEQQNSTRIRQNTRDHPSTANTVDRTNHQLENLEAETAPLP

hDOR [5] = biological target: T5, hDOR (Homo sapiens, UniProt P41143); assay: Tango β-arrestin recruitment assay, hDOR; format: cell-based; design: expressed in transfected cells; host or cells: HTLA cells expressing TEV fused-beta-Arrestin2
T5 sequence (P41143 whole entry, the tested form may be a part): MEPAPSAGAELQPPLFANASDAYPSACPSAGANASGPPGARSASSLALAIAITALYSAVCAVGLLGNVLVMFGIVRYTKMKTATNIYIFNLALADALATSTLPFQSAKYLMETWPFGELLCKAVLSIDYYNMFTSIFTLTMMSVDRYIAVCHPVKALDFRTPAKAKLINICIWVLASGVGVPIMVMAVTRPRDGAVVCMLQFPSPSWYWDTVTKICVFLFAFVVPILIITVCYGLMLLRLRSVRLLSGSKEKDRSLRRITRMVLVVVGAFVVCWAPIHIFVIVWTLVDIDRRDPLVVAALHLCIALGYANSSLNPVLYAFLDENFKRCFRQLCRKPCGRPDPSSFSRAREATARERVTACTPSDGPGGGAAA

hMOR [6] = biological target: T4, hMOR; assay: Tango β-arrestin recruitment assay, hMOR; format: cell-based; details: Tango
mMOR = biological target: T6, mMOR (Mus musculus, UniProt P42866); assay: [35S]GTPγS functional assay, mMOR; format: biochemical
T6 construct: expressed in transfected cells
T6 sequence (P42866 whole entry): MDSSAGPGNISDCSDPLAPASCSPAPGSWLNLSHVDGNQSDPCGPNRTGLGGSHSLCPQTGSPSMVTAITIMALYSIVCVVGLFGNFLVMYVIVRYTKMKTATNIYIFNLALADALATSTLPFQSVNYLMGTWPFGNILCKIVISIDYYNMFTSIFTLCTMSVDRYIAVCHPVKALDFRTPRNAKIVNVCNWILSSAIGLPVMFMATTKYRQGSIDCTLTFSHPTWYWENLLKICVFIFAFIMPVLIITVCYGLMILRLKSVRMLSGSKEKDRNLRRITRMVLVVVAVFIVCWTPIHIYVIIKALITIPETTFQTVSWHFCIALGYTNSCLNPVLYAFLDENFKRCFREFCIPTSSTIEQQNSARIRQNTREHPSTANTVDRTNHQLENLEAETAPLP

[7] = system: MOR KO, KOR KO, DOR KO mice; assay: Tail-withdrawal antinociception in opioid receptor knock out mice; format: in vivo, mouse; details: 30 nmol icv, relative to WT
Method: (§1) Tail-withdrawal assay The 55° C. warm-water tail-withdrawal assay was conducted in mice as a measure of acute thermal antinociception as described previously (Reilley et al., 2010). Briefly, each mouse was tested for baseline tail-withdrawal latency prior to drug administration. Following drug administration, the latency for each mouse to withdraw the tail was measured every 10 minutes until latency returned to the baseline value. A maximum response time of 15 seconds was utilized to prevent tissue damage. […] Data are reported as percent antinociception, calculated by the equation: % antinociception=100×[(test latency−baseline latency)/(15−baseline latency)]. This was utilized to account for innate variability between mice. Compounds were administered either, […] (IP) or intracerebroventricular (icv) and the analgesic action of compounds was assessed at the peak effect as described previously (Haley and McCormick, 1957). In brief, mice were anesthetized using isoflurane. A small incision was made, and the drug (2 μl/mouse) was injected (using a 10 μL Hamilton syringe fitted to a 27-gauge needle) into the right lateral ventricle at the following coordinates: 2 mm caudal to bregma, 2 mm lateral to sagittal suture, and 2 mm in depth. Mice were tested for analgesia at the peak effect post injection.

C57 mice = assay: Respiratory rate (CLAMS)
[8] = biological target: T7, rat kappa opioid receptor (rKOR) (Rattus norvegicus, UniProt P34975); assay: BRET assay, arrestin recruitment, rKOR; format: cell-based; details: BRET
T7 construct: expressed in transfected cells; host or cells: HEK-293T, transient (PEI), with BRET sensor cDNAs
T7 sequence (P34975 whole entry): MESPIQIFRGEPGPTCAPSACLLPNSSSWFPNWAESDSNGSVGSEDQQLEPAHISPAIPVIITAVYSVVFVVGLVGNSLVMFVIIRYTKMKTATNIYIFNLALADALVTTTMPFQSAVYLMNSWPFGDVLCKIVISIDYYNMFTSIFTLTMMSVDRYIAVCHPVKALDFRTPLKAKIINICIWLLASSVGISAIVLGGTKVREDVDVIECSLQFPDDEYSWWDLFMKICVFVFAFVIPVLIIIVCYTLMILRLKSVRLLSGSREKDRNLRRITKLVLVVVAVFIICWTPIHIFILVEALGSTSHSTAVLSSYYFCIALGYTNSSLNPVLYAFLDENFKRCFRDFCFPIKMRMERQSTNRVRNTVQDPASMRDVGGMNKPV

[9] = biological target: T8, mouse mu opioid receptor (mMOR) (Mus musculus, UniProt P42866); assay: cell-based; format: cell-based
T8 construct: expressed in transfected cells; host or cells: HEK-293T, transient (PEI), with BRET sensor cDNAs
T8 sequence (P42866 whole entry): as the sequence (P42866 whole entry) above

C57BL/6J mice [10] = assay: Conditioned place preference and aversion; details: MP1207 100 nmol icv, morphine 10 mg/kg IP, U50,488h 30 mg/kg IP
[11] = biological target: T9, mouse delta opioid receptor (mDOR) (Mus musculus, UniProt P32300); assay: BRET assay, G-protein activation, mDOR; format: cell-based
T9 construct: expressed in transfected cells; host or cells: HEK-293T, transient (PEI), with BRET sensor cDNAs
T9 sequence (P32300 whole entry): as the sequence (P32300 whole entry) above

hDOR [12] = biological target: T5, hDOR; assay: cAMP inhibition assay, hDOR; format: cell-based; design: expressed in transfected cells
mDOR [13] = biological target: T2, mDOR; assay: Radioligand competition binding ([125I]IBNtxA), CHO membranes, mDOR
[14] = biological target: T8, mouse mu opioid receptor (mMOR); assay: cell-based; format: cell-based; remark: listed apart in the source
Y312W-hKOR [15] = biological target: T1, Y312W-hKOR; assay: Tango-arrestin recruitment assay, Y312W-hKOR mutant; format: cell-based; design: expressed in transfected cells; details: Tango, compared with wild-type KOR
hKOR [16] = biological target: T3, hKOR; assay: Tango β-arrestin recruitment assay, hKOR; format: cell-based
[17] = biological target: T7, rat kappa opioid receptor (rKOR); assay: BRET assay, G-protein activation, rKOR; format: cell-based
C57BL/6J mice [18] = assay: 55° C. warm-water tail-withdrawal assay; format: in vivo, mouse; details: icv, 55° C. tail withdrawal
Method: as §1

mKOR = biological target: T10, mKOR (Mus musculus, UniProt P33534); assay: [35S]GTPγS functional assay, mKOR; format: biochemical
T10 construct: expressed in transfected cells
T10 sequence (P33534 whole entry): as the sequence (P34975 whole entry) above, with E11D, A17S, P51S, V308A counted along it

Question: How did the “selectivity for opioid receptors in GPCRome screen” value (330 non-olfactory GPCRs; agonism in arrestin recruitment TANGO assay) turn out when `NCc1cccc(C(=O)NC2CCC3C4Cc5ccc(O)c6c5C3(CCN4CC3CC3)C2O6)c1` [MP1207, 3-(Aminomethyl)-N-((7R,726S)-3-(cyclopropylmethyl)-9-hydroxy-2,3,4,4a,5,6,7,7a-octahydro-1H-4,12-methanobenzofuro[3,2-e]isoquinolin-7-yl)benzamide] was run?
Answer: reasonable selectivity for opioid receptors over 330 GPCRs; also recorded: selectivity for opioid receptors over non-opioid targets

Question: What about the “increase in signal over basal at opioid receptors” value (330 non-olfactory GPCRs; predominantly at KOR and DOR, much less at MOR) of the same molecule?
Answer: 2 fold over basal

Question: And the locomotor effect (C57/B6 mice)?
Answer: stimulated locomotor activity; also recorded: increase in the forward locomotory effect

Question: And the EC50 (Y312W-hKOR [1]; cAMP inhibition, read-out: Gi EC50 Y312W-hKOR)?
Answer: 0.16 nM

Question: What about the Emax (Y312W-hKOR [1]; read-out: Gi Emax Y312W-hKOR) of the same molecule?
Answer: 95 ± 1.8%

Question: What about the Emax (mDOR [2]) of the same molecule?
Answer: 10 to 15%

Question: And the “efficacy at mDOR” value (mDOR [2]; [35S]GTPγS)?
Answer: only weak efficacy

Question: And the Emax (hKOR [3]; HEK-293T, read-out: Gi Emax hKOR)?
Answer: 90 ± 1.7%

Question: And the “Bias factor toward G protein, hKOR” value (hKOR [3]; cAMP inhibition vs Tango, against U50,488H as control)?
Answer: 8

Question: What about the EC50 (hMOR [4]) of the same molecule?
Answer: 0.0339 nM

Question: And the Emax (hMOR [4]; HEK-293T, read-out: Gi Emax hMOR)?
Answer: 33 ± 1.4%

Question: What about the EC50 (hDOR [5]; hDOR, Tango) of the same molecule?
Answer: 64.1 nM

Question: And the Emax (hDOR [5]; read-out: Arrestin recruitment Emax % ± SEM)?
Answer: 34 ± 3.7%

Question: And the “arrestin recruitment at hMOR” value (hMOR [6])?
Answer: no recruitment of arrestin was seen; also recorded: no arrestin recruitment was observed

Question: And the Emax (mMOR)?
Answer: 41 ± 1%

Question: And the “antinociception in DOR KO mice” value [7]?
Answer: remained intact

Question: What about the “antinociception in KOR KO mice” value [7] of the same molecule?
Answer: significantly attenuated

Question: What about the “antinociception in MOR KO mice” value [7] of the same molecule?
Answer: significantly attenuated

Question: And the respiratory rate (C57 mice; 30 nmol icv)?
Answer: stimulated respiration; also recorded: an increase in the respiratory rate

Question: What about the respiratory rate (C57 mice; 100 nmol icv) of the same molecule?
Answer: still stimulated respiration; also recorded: slight right shift of effect

Question: What about the “arrestin recruitment at rKOR” value [8] of the same molecule?
Answer: no recruitment of βarrestin-2; also recorded: no arrestin recruitment was observed

Question: And the EC50 [9]?
Answer: 3.61 nM

Question: And the Emax ([9]; read-out: Gi Emax mMOR)?
Answer: 42 ± 2.6%

Question: What about the “conditioned place preference or aversion (CPP/CPA)” value (C57BL/6J mice [10]) of the same molecule?
Answer: failed to show either rewarding or aversive behavior; also recorded: did not display GPP seen with morphine or CPA behavior seen with U50, 488h

Question: And the EC50 ([11]; mDOR, BRET)?
Answer: 116 nM

Question: And the Emax ([11]; read-out: G-Protein activation Emax % ± SEM)?
Answer: 52 ± 2.3%

Question: What about the EC50 (hDOR [12]; hDOR) of the same molecule?
Answer: 11.4 nM

Question: What about the Emax (hDOR [12]; read-out: cAMP inhibition Emax % ± SEM) of the same molecule?
Answer: 38 ± 2%

Question: What about the “selectivity of MOR and KOR over DOR in the binding assays” value (mDOR [13]) of the same molecule?
Answer: > 40 fold

Question: What about the “arrestin recruitment at mMOR” value [14] of the same molecule?
Answer: no recruitment of βarrestin-2; also recorded: no arrestin recruitment was observed

Question: What about the “arrestin recruitment at Y312W-hKOR” value (Y312W-hKOR [15]) of the same molecule?
Answer: further reduction of arrestin recruitment; also recorded: reduced arrestin measurement

Question: And the Emax (hKOR [16])?
Answer: 37 ± 2%

Question: What about the EC50 (hKOR [16]; Tango, WT-hKOR) of the same molecule?
Answer: 3.97 nM

Question: And the EC50 ([17]; BRET, read-out: Gi EC50 rKOR)?
Answer: 1.13 nM

Question: What about the Emax ([17]; read-out: Gi Emax rKOR) of the same molecule?
Answer: 32 ± 2.3%

Question: And the “antinociceptive ED50 (95% CI)” value (C57BL/6J mice [18])?
Answer: 6.1 (4.1-8.9) nmol and 6.1 nmol

Question: What about the Emax (mKOR) of the same molecule?
Answer: 39.3 ± 1.3%
